Source: publication PMC8064475, “Synthesis of Biobased Phloretin Analogues: An Access to Antioxidant and Anti-Tyrosinase Compounds for Cosmetic Applications” (Antioxidants, 2021)
“Also recorded” adds a separate entry of the source.

Legend:
[1] = DPPH radical scavenging assay; assay type: biochemical; settings: in ethanol; DPPH 200 µM; read at 520 nm over 7.5 h; read-out: EC50 for DPPH inhibition
Procedure: The radical scavenging activity of all compounds was tested through 2,2-diphenyl-1-picryhydrazyl (DPPH) assay which determines the EC50 values as previously described. The test consists of adding 190 µL of DPPH solution (200 µM) in ethanol to 10 µL of potential antiradical molecule solution at different concentrations (from 800 to 12.5 µM). The reaction was carried out in 96-well microplates and the disappearance of DPPH radicals was monitored at 520 nm every 5 min during 7.5 h in a multiplate Biotek (Winooski, VT, USA), Epoch 2 spectrophotometer. The EC50 values, corresponding to the concentration needed to reduce half of the initial population of DPPH radicals, were provided by the crossing point of the curves of %DPPH and %reduced DPPH. Curves dots were obtained using an average of the last six measurements for each concentration in Regressi® software version 3.99.

mushroom tyrosinase = experiment: Mushroom tyrosinase inhibition assay; assay type: biochemical; settings: tyrosine substrate; ammonium formate buffer pH 6.4; 37 °C; dopachrome at 420 nm
Procedure: Tyrosinase inhibition activity was evaluated using the method used by Peyrot et al.. […] Then, 20 µL of tyrosine at 4.42 mM in ammonium formate buffer was added. […] IC50 values, corresponding to the concentration required to inhibit 50% of tyrosinase activity, were obtained using GraphPad Prism® software version 6.01.

[2] = UV-Vis spectra at 10 µM in ethanol; assay type: physicochemical; settings: 1 cm quartz cuvette, band I
Procedure: (§1) UV-Vis spectra were recorded at 10 µM in ethanol on a Cary 60 UV-Vis spectrophotometer by Agilent (Wilmington, DE, USA) in a 1 cm quartz cuvette. The absorbance loss was evaluated by comparison of absorbances at the λmax before and after 1 h of irradiation into a Rayonet® RPR-200 (λ = 300 nm, P = 8.32 W.m^−2, stirring, T = 35 °C) (SNE Ultraviolet Co. Branford, CT, USA) using 14 RPR-3000A lamps.

[3] = Photostability: absorbance loss after UV irradiation; assay type: physicochemical; settings: 10 µM in ethanol; 1 h irradiation at 300 nm; absorbance at λmax before vs after
Procedure: as §1

Row | Molecule | EC50 [1] | IC50 (mushroom tyrosinase) | Maximal absorbance [2] | Loss of absorbance [3] | IC50 for mushroom tyrosinase inhibition (mushroom tyrosinase)
1 | 3,4,4′-trihydroxy-3-methoxy-chalcone [a7] | 31.5 µM | 2300 ± 100 µM | 0.38 | 46.2% | –
2 | COc1ccc(C(=O)CC(=O)c2ccc(C(C)(C)C)cc2)cc1 [Avobenzone, avobenzone, reference compound] | – | – | 0.37 | 0.6% | –
3 | COc1ccc(O)c(C(C)(C)C)c1 [BHA, butylated hydroxyanisol, reference compound] | 18.5 µM | – | – | – | –
4 | CCCCC(CC)COC(=O)C=Cc1ccc(OC)cc1 (stereo not drawn) [Octinoxate, octinoxate, reference compound] | – | – | 0.24 | 26.0% | –
5 | O=C(/C=C/c1ccc(O)cc1)c1ccc(O)cc1 [a1, 4,4′-dihydroxy-chalcone] | > 80 µM | 100 ± 10 µM | 0.65 | 77.6% | –
6 | COc1cc(/C=C/C(=O)c2ccc(O)cc2)ccc1O [a5, 4,4′-dihydroxy-3-methoxy-chalcone] | 71 µM | 2300 ± 100 µM | – | – | –
7 | COc1cc(C(=O)/C=C/c2ccc(O)cc2)ccc1O [a6, 4,4′-dihydroxy-3′-methoxy-chalcone] | > 80 µM | 140 ± 10 µM | – | 16.1% | –
8 | COc1cc(C(=O)/C=C/c2ccc(O)cc2)cc(OC)c1O [a9, 4,4′-dihydroxy-3′,5′-dimethoxy-chalcone] | > 80 µM | 130 ± 10 µM | – | – | –
9 | COc1cc(/C=C/C(=O)c2ccc(O)c(OC)c2)ccc1O [a10, 4,4′-dihydroxy-3,3′-dimethoxy-chalcone] | 43.5 µM | 1800 ± 90 µM | – | – | –
10 | COc1cc(C(=O)/C=C/c2cc(OC)c(O)c(OC)c2)ccc1O [a11, 4,4′-dihydroxy-3,3′,5-trimethoxy-chalcone] | 45 µM | 7900 ± 400 µM | 0.27 | – | –
11 | COc1cc(/C=C/C(=O)c2cc(OC)c(O)c(OC)c2)cc(OC)c1O [a12, 4,4′-dihydroxy-3,3′,5,5′-tetramethoxy-chalcone] | 43 µM | > 10000 µM | – | – | –
12 | O=C(CCc1ccc(O)cc1)c1ccc(O)cc1 [b1, 4,4′-dihydroxy-dihydrochalcone] | > 80 µM | > 10000 µM | 0.23 | 13.8% | –
13 | O=C(CCc1ccc(O)c(O)c1)c1ccc(O)cc1 [b2, 3,4,4′-trihydroxy-dihydrochalcone] | 35 µM | > 10000 µM | 0.21 | 11.4% | –
14 | O=C(CCc1ccc(O)cc1)c1ccc(O)c(O)c1 [b3, 3′,4,4′-trihydroxy-dihydrochalcone] | 16 µM | > 10000 µM | – | Negative loss of absorbance; also recorded: higher absorbance higher after 1 h of irradiation | –
15 | O=C(CCc1ccc(O)c(O)c1)c1ccc(O)c(O)c1 [b4, 3,3′,4,4′-tetrahydroxy-dihydrochalcone] | 15 µM | > 10000 µM | – | Negative loss of absorbance; also recorded: higher absorbance higher after 1 h of irradiation | –
16 | COc1cc(C(=O)CCc2ccc(O)cc2)ccc1O [b6, 4,4′-dihydroxy-3′-methoxy-dihydrochalcone] | > 80 µM | > 10000 µM | – | – | –
17 | COc1cc(C(=O)CCc2ccc(O)cc2)cc(OC)c1O [b9, 4,4′-dihydroxy-3′,5′-dimethoxy-dihydrochalcone] | > 80 µM | > 10000 µM | 0.19 | 67.7% | –
18 | COc1cc(C(=O)CCc2cc(OC)c(O)c(OC)c2)ccc1O [b11, 4,4′-dihydroxy-3,3′,5-trimethoxy-dihydrochalcone] | 33 µM | > 10000 µM | – | Full loss of absorbance | –
19 | COc1cc(CCC(=O)c2cc(OC)c(O)c(OC)c2)cc(OC)c1O [b12, 4,4′-dihydroxy-3,3′,5,5′-tetramethoxy-dihydrochalcone] | 42.5 µM | > 10000 µM | – | – | –

Continued, in another order:

Row | EC50 [1] | IC50 (mushroom tyrosinase) | Maximal absorbance [2] | Loss of absorbance [3] | Molecule | IC50 for mushroom tyrosinase inhibition (mushroom tyrosinase)
20 | 32 µM | > 10000 µM | – | – | COc1cc(C(=O)CCc2ccc(O)c(O)c2)ccc1O [b7, 3,4,4′-trihydroxy-3-methoxy-dihydrochalcone] | –
21 | 31.5 µM | – | – | – | O=C(/C=C/c1ccc(O)c(O)c1)c1ccc(O)cc1 [a2, 3,4,4′-trihydroxy-chalcone] | –
22 | 29.5 µM | 270 ± 10 µM | 0.13 | 20% | COc1cc(CCC(=O)c2ccc(O)c(OC)c2)ccc1O [b10, 4,4′-dihydroxy-3,3′-dimethoxydihydrochalcone] | –
23 | 28 µM | – | – | – | Cc1cc(C(C)(C)C)c(O)c(C(C)(C)C)c1 [BHT, butylated hydroxytoluene, reference compound] | –
24 | 28 µM | 500 ± 30 µM | – | – | COc1cc(CCC(=O)c2ccc(O)cc2)ccc1O [b5, 4,4′-dihydroxy-3-methoxy-dihydrochalcone] | –
25 | 24.5 µM | > 10000 µM | 0.23 | 5.9% | O=C(CCc1ccc(O)cc1)c1c(O)cc(O)cc1O [Phloretin, phloretin] | did not exhibit tyrosinase inhibition activity
26 | 15.5 µM | > 10000 µM | – | – | O=C(/C=C/c1ccc(O)cc1)c1ccc(O)c(O)c1 [a3, 3′,4,4′-trihydroxy-chalcone] | did not show any activity
27 | 11 µM | 70 ± 10 µM | – | 0.1% | COc1cc(CCC(=O)c2ccc(O)c(O)c2)ccc1O [b8, 3′,4,4′-trihydroxy-3-methoxy-dihydrochalcone] | –
28 | 9.5 µM | > 10000 µM | – | – | COc1cc(/C=C/C(=O)c2ccc(O)c(O)c2)ccc1O [a8, 3′,4,4′-trihydroxy-3-methoxy-chalcone] | –
29 | 8 µM | – | 0.47 | 75.7% | O=C(/C=C/c1ccc(O)c(O)c1)c1ccc(O)c(O)c1 [a4, 3,3′,4,4′-tetrahydroxy-chalcone] | –
